Drawing on ChEMBL document CHEMBL1240479, “Exploring benzcyclo derivatives as potent aromatase inhibitors using ligand-based modeling studies” (Eur J Med Chem, 2010), this text covers IC50 for 3 compounds.

Each structure is given as a SMILES string.

For this test, the target named is T1, Aromatase (Homo sapiens, UniProt P11511).
T1 sequence (P11511 whole entry): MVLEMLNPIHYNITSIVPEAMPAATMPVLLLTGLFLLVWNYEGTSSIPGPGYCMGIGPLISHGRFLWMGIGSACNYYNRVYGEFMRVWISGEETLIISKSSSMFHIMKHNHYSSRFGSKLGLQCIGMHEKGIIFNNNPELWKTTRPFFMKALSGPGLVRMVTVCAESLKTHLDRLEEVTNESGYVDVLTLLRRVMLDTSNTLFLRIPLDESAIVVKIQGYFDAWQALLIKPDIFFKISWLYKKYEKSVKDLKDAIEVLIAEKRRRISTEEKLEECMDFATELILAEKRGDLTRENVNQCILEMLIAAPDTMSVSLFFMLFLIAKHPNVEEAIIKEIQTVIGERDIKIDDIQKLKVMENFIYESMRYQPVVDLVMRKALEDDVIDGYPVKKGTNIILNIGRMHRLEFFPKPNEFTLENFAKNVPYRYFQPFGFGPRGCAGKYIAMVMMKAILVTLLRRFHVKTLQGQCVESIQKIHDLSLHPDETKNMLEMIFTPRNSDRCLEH
Briefly: Inhibition of aromatase.
Usually IC50 stands for the concentration needed to halve the response being measured. Lower therefore signals higher potency. As for `Brc1ccc2c(c1)CC/C2=C/c1ccncc1`, the IC50 came out at 3.96 µM.
In the case of `Brc1ccc2c(c1)CCC2=Cc1ccncc1`, the IC50 came out at 3.4 µM.
The value for `C(=C(c1ccccc1)c1ccccc1)c1cccnc1` was 3.68 µM.
